How the values were obtained:
[1] = test system: peripheral blood mononuclear cells (PBMC), T cells; assay: ELISpot assay, gamma-interferon release (SFC) after stimulation with a-synuclein epitope pools; format: cell-based, human; conditions: for Pool +: IFNg, Pool Stimulated, number of donors with a positive response, Donors tested 1
Method: (§1) Blood from age matched controls and PD patients were obtained and mononuclear cells were isolated by gradient centrifugation.
(§2) Release of the cytokines gamma-interferon, which measures activation of CD4+ and/or CD8+ T cells, and the interleukin, IL-5, which measures activation of CD4+ T cells was measured by ELISpot assay. […] After 22 hours of stimulation at 37 C, the cells were removed and release of cytokines was measured by colorimetric detection of spot-forming cells (SFC). Confirmed release of cytokine is determined by the presence of a minimum of 20 SFC per million cells.
(§3) The binding algorithms in SubAim 1 predict how well the peptides would bind to MHC if present, but not if they are present in patients. To determine this, the presence of T cell response against the candidate antigens by patient blood-derived peripheral blood mononuclear cells (PBMC) is assessed by ELISPOT assays upon stimulation with the peptides. This assay detects and quantifies cytokine release (in this case, IFNγ and IL-5) from specific activated T cells.
(§4) Data were obtained from blood samples (25 ml) from 44 PD patients and 24 age-matched controls. The experiments were conducted blindly. PBMCs from these samples were isolated and exposed to pools comprising the 122 candidate class I and class II antigens and phosphorylated S129 epitopes generated in Subaim 1. For the PBMCs responsive to the pooled peptides, the response was then deconvoluted to identify individual epitopes.
(§5) PMBC fractions are recovered by standard methods with Ficoll gradient and T cells expansion (Oseroff et al., 2010). The methods for the analysis of T cell reactions and measurement of cytokines production using the enzyme-linked immunosorbent spot (ELISPOT) assay are published in analogous experiments to discover antigens in multiple sclerosis (Lolli et al., 2013) and in hay fever allergens (Oseroff et al., 2010). T cell responses are determined by measuring IFNγ and IL-5 release by ELISPOT. Statistical analysis of differences between populations is expected to be non-parametric and analyzed with the U-Mann-Whitney test. If there were a normal distribution of response, which is a priori unlikely as some patients have no T cell response, with an SD=1, 8 patients per group would be required to provide a p>90% that the study detect a >2 fold difference at a two-sided 0.05 significance level.

[2] = test system: peripheral blood mononuclear cells (PBMC), T cells; assay: ELISpot assay, IL-5 release (SFC) after stimulation with a-synuclein epitope pools; format: cell-based, human
Method: as §1, §2, §3, §4, §5

[3] = Patients Summary, PD patients, of donors tested (peptide)
[4] = Patients Summary, PD patients, single peptide
[5] = number of donors positive to the single peptide, second 'Pool Stimulated' section (from r296), 12 donors tested
[6] = peptide + / donors tested (peptide), second 'Pool Stimulated' section (from r296), 12 donors tested
[7] = single peptide, second 'Pool Stimulated' section (from r296), 12 donors tested
[8] = pool 'Phospho' (phosphorylated peptides)
[9] = Patients Summary, Phospho pool peptides
[10] = Patients Summary, Phospho pool peptides, 10 donors tested
[11] = peptides of pool 'Poshpho', 8 donors tested
[12] = peptides of pool 'Poshpho', 8 donors tested, number of donors positive

| Substance | Pool + [1] | IFNg Peptide + (donors positive to the peptide) [1, 3] | IFNg Response Frequency [1, 4] | IFNg Total SFC [1, 4] | IFNg Peptide + [1, 5] | IFNg Response Frequency [1, 6] | IFNg Total SFC [1, 7] | IL-g Peptide + (donors positive to the peptide) [2, 3] | IL-g Response Frequency [2, 4] | IL-g Total SFC [2, 4] | IL-g Peptide + [2, 5] | IL-g Response Frequency [2, 6] | IL-g Total SFC [2, 7] | further results |
| --- | --- | --- | --- | --- | --- | --- | --- | --- | --- | --- | --- | --- | --- | --- |
| 3521.0032 (GAVVTGVTAV; listed as Homo sapiens) | 1 | 0 | 0% | 0 SFC | 0 | 0% | 0 SFC | 0 | 0% | 0 SFC | 0 | 0% | 0 SFC |  |
| 3521.0028 (MPSEEGYQDY; listed as Homo sapiens) | 0 | 0 | 0% | 0 SFC | 0 | 0% |  | 0 | 0% | 0 SFC | 0 | 0% | 0 SFC | Pool + [1, 8]: 1; IFNg Avg SFC [1, 9]: 420 SFC; IFNg Response Frequency [1, 9]: 30%; IFNg Total SFC [1, 9]: 1260 SFC; IFNg Peptide + (donors positive to the peptide) [1, 10]: 3; IFNg Avg SFC [1, 11]: 40 SFC; IFNg Response Frequency [1, 11]: 13%; IFNg Total SFC [1, 11]: 40 SFC; IFNg Peptide + [1, 12]: 1; IL-g Avg SFC [2, 9]: 350 SFC; IL-g Response Frequency [2, 9]: 20%; IL-g Total SFC [2, 9]: 700.3 SFC; IL-g Peptide + (donors positive to the peptide) [2, 10]: 2; IL-g Avg SFC [2, 11]: 113 SFC; IL-g Response Frequency [2, 11]: 13%; IL-g Total SFC [2, 11]: 113 SFC; IL-g Peptide + [2, 12]: 1 |
| 3521.0025 (EEGAPQEGI; listed as Homo sapiens) | 0 | 1 | 25% | 290 SFC | 0 | 0% | 0 SFC | 2 | 50% | 172 SFC | 0 | 0% | 0 SFC | IFNg Avg SFC [1, 4]: 290 SFC; IL-g Avg SFC [2, 4]: 86 SFC |
| 3521.0018 (MPVDPDNEA; listed as Homo sapiens) | 0 | 0 | 0% | 0 SFC | 0 | 0% |  | 0 | 0% | 0 SFC | 0 | 0% | 0 SFC |  |
| 3521.0001 (PVDPDNEAY; listed as Homo sapiens) | 0 | 0 | 0% | 0 SFC | 0 | 0% |  | 0 | 0% | 0 SFC | 0 | 0% | 0 SFC |  |
| 3521.0045 (KTKKGVVHGV; listed as Homo sapiens) |  | 1 | 17% | 133 SFC |  |  |  | 0 | 0% | 0 SFC |  |  |  | IFNg Avg SFC [1, 4]: 133 SFC |
| 3521.003 (GSIAAATGFV; listed as Homo sapiens) | 0 | 0 | 0% | 0 SFC | 0 | 0% | 0 SFC | 1 | 25% | 40 SFC | 0 | 0% | 0 SFC | IL-g Avg SFC [2, 4]: 40 SFC |
| 3521.0023 (YEMPSEEGY; listed as Homo sapiens) | 0 | 0 | 0% | 0 SFC | 0 | 0% |  | 0 | 0% | 0 SFC | 1 | 50% | 58 SFC | Pool + [1, 8]: 1; IFNg Avg SFC [1, 9]: 680 SFC; IFNg Response Frequency [1, 9]: 30%; IFNg Total SFC [1, 9]: 2039 SFC; IFNg Peptide + (donors positive to the peptide) [1, 10]: 3; IFNg Avg SFC [1, 11]: 333 SFC; IFNg Response Frequency [1, 11]: 13%; IFNg Total SFC [1, 11]: 333 SFC; IFNg Peptide + [1, 12]: 1; IL-g Avg SFC [2, 9]: 1593 SFC; IL-g Response Frequency [2, 9]: 10%; IL-g Total SFC [2, 9]: 1593 SFC; IL-g Peptide + (donors positive to the peptide) [2, 10]: 1; IL-g Avg SFC [2, 11]: 193 SFC; IL-g Response Frequency [2, 11]: 13%; IL-g Total SFC [2, 11]: 193 SFC; IL-g Peptide + [2, 12]: 1; IL-g Avg SFC [2, 7]: 58 SFC |
| 3521.0036 (AGSIAAATGF; listed as Homo sapiens) | 0 | 0 | 0% | 0 SFC | 0 | 0% | 0 SFC | 0 | 0% | 0 SFC | 0 | 0% | 0 SFC |  |
| 352100.45 (KTKKGVVHGV; listed as Homo sapiens) | 0 |  |  |  |  |  |  |  |  |  |  |  |  |  |
